Measured values: PubChem BioAssay (NCI)
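All cell lines were grown in 96-well plates and treated with compound for 48 hours. At the GI50, growth is halved. At the TGI there is no net growth.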

What was measured:
Assay in all cases: NCI-60 cell line screen, 48 h
HOP-62 NSCLC = test system: HOP-62 NSCLC
OVCAR-4 ovarian = test system: OVCAR-4 ovarian
T-47D breast = test system: T-47D breast
DU-145 prostate = test system: DU-145 prostate
MDA-MB-435 = test system: MDA-MB-435
SK-OV-3 ovarian = test system: SK-OV-3 ovarian
MDA-MB-231 breast = test system: MDA-MB-231 breast
TK-10 renal = test system: TK-10 renal
ACHN renal = test system: ACHN renal
DMS 273 small cell lung = test system: DMS 273 small cell lung

Which TGI (HOP-62 NSCLC) does the source give for CC(/C=C/c1ccc([N+](=O)[O-])o1)=N/N1CC(CN2CCOCC2)OC1=O (stereo unspecified) here?
Its TGI is over 100 µM.

And the TGI (OVCAR-4 ovarian)?
Its TGI is 29.7 µM.

What about the TGI (T-47D breast) of the same compound?
The TGI was 41.2 µM.

And the TGI (DU-145 prostate)?
Its TGI is 60.4 µM.

What about the TGI (MDA-MB-435) of the same compound?
The TGI was 42.2 µM.

What about the TGI (SK-OV-3 ovarian) of the same compound?
Its TGI is over 100 µM.

And the TGI (MDA-MB-231 breast)?
The TGI was over 100 µM.

And the TGI (TK-10 renal)?
The TGI was over 100 µM.

And the TGI (ACHN renal)?
The TGI was 34.2 µM.

Which results are given for CC(C)=CCc1c(C)cc2cc3c(c(O)c2c1O)C(O)=CC(=O)C3(CC=C(C)C)C/C=C(\C)CO (stereo unspecified)?
TGI (HOP-62 NSCLC): 64.3 µM; TGI (OVCAR-4 ovarian): 87 µM; TGI (SK-OV-3 ovarian): 71.4 µM; TGI (DMS 273 small cell lung): 109 µM

Which results are given for COc1cc2c3c(n(CCN(C)C)c(=O)c2cc1OC)-c1cc2c(cc1C3=O)OCO2?
TGI (HOP-62 NSCLC): > 86.1 µM; GI50 (OVCAR-4 ovarian): > 38.2 µM; TGI (OVCAR-4 ovarian): > 100 µM; GI50 (T-47D breast): 27.1 µM; TGI (T-47D breast): > 100 µM; GI50 (DU-145 prostate): 0.218 µM; TGI (DU-145 prostate): > 22.5 µM; GI50 (MDA-MB-435): 6.08 µM; TGI (MDA-MB-435): > 77 µM; GI50 (SK-OV-3 ovarian): > 29 µM; TGI (SK-OV-3 ovarian): > 100 µM; TGI (MDA-MB-231 breast): > 32.1 µM; GI50 (TK-10 renal): 46.2 µM; TGI (TK-10 renal): > 100 µM; TGI (ACHN renal): > 100 µM

Which TGI (HOP-62 NSCLC) does the source give for Cc1nc2ccccc2c(=O)n1CC(=O)O here?
Its TGI is over 100 µM.

What about the TGI (OVCAR-4 ovarian) of the same compound?
The TGI was over 100 µM.

And the TGI (SK-OV-3 ovarian)?
Its TGI is over 100 µM.

And the TGI (DMS 273 small cell lung)?
Its TGI is over 100 µM.

Which TGI (HOP-62 NSCLC) does the source give for O=C(O)c1cc(=O)[nH]c(=S)[nH]1 here?
The TGI was over 100 µM.

And the TGI (OVCAR-4 ovarian)?
Its TGI is over 100 µM.

And the TGI (T-47D breast)?
Its TGI is over 100 µM.

What about the TGI (DU-145 prostate) of the same compound?
The TGI was over 100 µM.

What about the TGI (MDA-MB-435) of the same compound?
The TGI was over 100 µM.

And the TGI (SK-OV-3 ovarian)?
Its TGI is over 100 µM.

And the TGI (MDA-MB-231 breast)?
Its TGI is over 100 µM.

And the TGI (TK-10 renal)?
Its TGI is over 100 µM.

And the TGI (ACHN renal)?
The TGI was over 100 µM.

For CC1(C)CCc2cc3c(-c4ccccc4)cc(=O)oc3cc2O1, which TGI (SK-OV-3 ovarian) is on record?
The TGI was over 100 µM.

And the TGI (DMS 273 small cell lung)?
Its TGI is over 100 µM.

And the TGI (TK-10 renal)?
The TGI was over 100 µM.

And the TGI (ACHN renal)?
Its TGI is over 100 µM.

With CCCCN(CCCC)CCCCNc1c(C)cnc2cc(Cl)ccc12 as the compound, how does the TGI (HOP-62 NSCLC) read?
Its TGI is 68.2 µM.

What about the TGI (OVCAR-4 ovarian) of the same compound?
Its TGI is over 100 µM.

What about the TGI (TK-10 renal) of the same compound?
The TGI was 96 µM.

And the TGI (ACHN renal)?
The TGI was over 100 µM.

Which results are given for CCOP(=O)(OCC)C(Cc1ccc(OC)c(OC)c1)N=C(c1ccccc1)c1ccccc1 (stereo unspecified)?
TGI (OVCAR-4 ovarian): > 100 µM; TGI (T-47D breast): 56.8 µM; TGI (DU-145 prostate): > 100 µM; TGI (MDA-MB-435): > 100 µM; TGI (MDA-MB-231 breast): > 100 µM; TGI (TK-10 renal): > 100 µM; TGI (ACHN renal): > 100 µM

Which results are given for Cc1ccc(S(=O)(=O)Oc2cc(S(=O)(=O)O)cc3cc(S(=O)(=O)O)cc(N)c23)cc1?
TGI (HOP-62 NSCLC): > 100 µM; TGI (OVCAR-4 ovarian): > 100 µM; TGI (T-47D breast): > 100 µM; TGI (DU-145 prostate): > 100 µM; TGI (MDA-MB-435): > 100 µM; TGI (SK-OV-3 ovarian): > 100 µM; TGI (MDA-MB-231 breast): > 100 µM; TGI (TK-10 renal): > 100 µM; TGI (ACHN renal): > 100 µM

With CCN(CC)CCCC(Nc1c2ccc(Cl)cc2nc2ccc(OC)cc12)c1ccc(F)cc1 (stereo unspecified) as the compound, how does the GI50 (HOP-62 NSCLC) read?
The GI50 was 2.54 µM.

What about the TGI (HOP-62 NSCLC) of the same compound?
Its TGI is 6.87 µM.

What about the GI50 (OVCAR-4 ovarian) of the same compound?
The GI50 was 1.71 µM.

And the TGI (OVCAR-4 ovarian)?
The TGI was 4.71 µM.

What about the GI50 (T-47D breast) of the same compound?
Its GI50 is 2.15 µM.

And the TGI (T-47D breast)?
Its TGI is 5.66 µM.

And the GI50 (DU-145 prostate)?
The GI50 was 3.23 µM.

And the TGI (DU-145 prostate)?
The TGI was 10.4 µM.

What about the GI50 (MDA-MB-435) of the same compound?
Its GI50 is 1.73 µM.

And the TGI (MDA-MB-435)?
The TGI was 3.2 µM.

And the GI50 (SK-OV-3 ovarian)?
Its GI50 is 4.33 µM.

And the TGI (SK-OV-3 ovarian)?
Its TGI is 15.9 µM.

What about the GI50 (MDA-MB-231 breast) of the same compound?
The GI50 was 1.47 µM.

And the TGI (MDA-MB-231 breast)?
Its TGI is 3.08 µM.

What about the GI50 (TK-10 renal) of the same compound?
The GI50 was 1.81 µM.

And the TGI (TK-10 renal)?
The TGI was 3.58 µM.

What about the GI50 (ACHN renal) of the same compound?
The GI50 was 1.97 µM.

What about the TGI (ACHN renal) of the same compound?
The TGI was 3.64 µM.

How did the TGI (HOP-62 NSCLC) turn out when Cc1cccc2c(N)c3cccc(C(=O)NCCN(C)C)c3nc12 was run?
The TGI was 0.459 µM.

And the TGI (OVCAR-4 ovarian)?
The TGI was 18 µM.

And the TGI (T-47D breast)?
The TGI was 0.513 µM.

And the TGI (DU-145 prostate)?
The TGI was 0.639 µM.

What about the TGI (MDA-MB-435) of the same compound?
Its TGI is 0.321 µM.

And the TGI (SK-OV-3 ovarian)?
Its TGI is 14.5 µM.

What about the TGI (MDA-MB-231 breast) of the same compound?
Its TGI is 0.275 µM.

And the TGI (TK-10 renal)?
The TGI was over 30 µM.

And the TGI (ACHN renal)?
Its TGI is 6.75 µM.

Which TGI (HOP-62 NSCLC) does the source give for Cc1ccc(/C(=C/C=C(C#N)C#N)Sc2cc(Cl)ccc2Cl)cc1 here?
Its TGI is over 100 µM.

What about the TGI (OVCAR-4 ovarian) of the same compound?
The TGI was 37.7 µM.

What about the TGI (T-47D breast) of the same compound?
Its TGI is 67.5 µM.

What about the TGI (DU-145 prostate) of the same compound?
The TGI was 13.9 µM.

What about the TGI (MDA-MB-435) of the same compound?
The TGI was 7.46 µM.

What about the TGI (SK-OV-3 ovarian) of the same compound?
The TGI was 27.8 µM.

What about the TGI (MDA-MB-231 breast) of the same compound?
The TGI was 13 µM.

And the TGI (TK-10 renal)?
Its TGI is 18.7 µM.

What about the TGI (ACHN renal) of the same compound?
Its TGI is 10 µM.
